# Measurements taken from US20020125193A1, “Electrochemical analysis of coenzyme Q10 and reduced coenzyme Q10” (priority 2001, published 2002).
# Legend:
# [1] = Solubility in 1-propanol relative to other alcohols; format: physicochemical
# Source text: Using 1-propanol as an extracting solvent allows fast and simple sample processing. The procedure has been simplified to a single extraction and no evaporation process is needed. This allows for efficient sample handling. Extraction of CoQ10H2 and CoQ10 from a variety of biological matrices is made facile with 1-propanol, because it can be mixed with water in any proportion. […] Thus, 1-propanol is an effective extraction solvent (Table 2). The 1-propanol extract can be directly analyzed by the described HPLC-EC method. Furthermore, this procedure takes advantage of the use of CoQ9 as an internal standard. Because the levels of CoQ9 in human blood are negligible, it is desirable to spike control samples with this CoQ9 to validate the extraction process.
# [2] = Stability of CoQ10H2 in 1-propanol extract; format: physicochemical, human
# Description: (§1) Each frozen sample is thawed at room temperature, and 100 μl of this sample is placed in a 1.5-ml capped polypropylene tube containing 50 μl of internal standard solution (CoQ9, 2 μg/mL in 1-propanol). All the tubes are kept in an ice-bath. This is mixed with 850 μl of cold 1-propanol. The tubes are vortexed for 2 minutes on a mechanical vortexer and centrifuged for 10 min at 0-4° C. The resulting supernatant is separated from the precipitate and transferred to an autosampler glass vial. The sample vial is immediately placed in the autosampler tray at 0-4° C. A batch of up to 20 samples can be extracted and processed at the same time. An aliquot of 20 μl of 1-propanol extract from a vial is injected immediately onto an automated HPLC. Twenty samples can be analyzed sequentially, within 4 hours.
# [3] = Stability of CoQ10H2 in refrigerated blood samples in vacutainers; format: physicochemical, human
# Description: When blood samples in vacutainers are opened and kept refrigerated, the CoQ10H2:TQ10 ratios (n=30) in EDTA samples decreased by ˜30% over 7 h, whereas the CoQ10H2:TQ10 ratios in heparinized samples were stable over the same period with variation of less than 3% (median 0.949; range 0.927-0.970; n=30). There was as significant difference of CoQ10H2:TQ10 ratios in heparin in EDTA (P=0.028). The observed findings therefore reflect the effect of air-exposure on EDTA samples during the blood sampling procedure. The results also indicate that delays, in processing and analyzing EDTA samples would result in lowered and variable CoQ10H2:TQ10 ratios.
# CoQ10H2 is not stable and is oxidized in air at room temperature. CoQ10H2 is unstable in whole blood, plasma and n-propanol extract when EDTA is used as anticoagulant. EDTA-anticoagulated blood loses approximately 15% of CoQ10H2 within 4 hours when stored in refrigeration (4° C.), whereas only <1% loss of CoQ10H2 occurs in heparin-anticoagulated blood under the same conditions (FIG. 6). When fresh blood samples in closed heparin vacutainers are kept refrigerated, no significant difference in CoQ10H2:TQ10 ratios was observed between samples stored for 0 h and 24 h (P=0.052). The median CoQ10H2:TQ10 ratio stored for 24 h was 0.955 (range 0.923-0.972; n=8) in comparison to the initial value of 0.964 (range 0.935-0.978; n=8). The CoQ10H2:TQ10 ratios decreased by ˜6% after 48 h and by ˜28% after 72 h. Storage of blood specimens in VACUTAINERS at +4° C. […] Okamoto et al reported the percentage of CoQ10H2 with respect to the TQ10 was constant in plasma for one day when kept at 2° C. and −10° C.
# [4] = CoQ10H2 and TQ10 in paired heparin versus EDTA plasma samples by HPLC-EC; format: physicochemical, human
# Description: (§2) According to the present invention, venous blood is collected into a VACUTAINER containing heparin as anticoagulant and mixed gently by inversion 5-6 times. At this point the blood-heparin tube is securely capped, and is then placed in ice and/or kept in refrigeration prior to processing. The blood-heparin tube should be processed within 4 hours. Blood samples should not be collected in tubes containing metal chelators, such as ethylenediaminetetraacetic acid (EDTA). The blood-heparin tube is subject to centrifugation at an appropriate speed such as 3000 rpm for 10 minutes at 4° C. Heparinized plasma is separated from red blood cells and placed in a capped polypropylene tube and immediately stored at −75° C. or below until analysis.
# as §1, with “A batch of up to 20 samples can be extracted and processed at the same time. An aliquot of 20 μl of 1-propanol extract from a vial is injected immediately onto an automated HPLC.” left out, “hours. […]” for “hours.”
# [5] = Stability of CoQ10H2 in frozen plasma; format: physicochemical, human; settings: plasma kept frozen at −75° C. or below
# Description: as §2
# CoQ10H2 is not stable and is oxidized in air at room temperature. CoQ10H2 is unstable in whole blood, plasma and n-propanol extract when EDTA is used as anticoagulant. EDTA-anticoagulated blood loses approximately 15% of CoQ10H2 within 4 hours when stored in refrigeration (4° C.), whereas only <1% loss of CoQ10H2 occurs in heparin-anticoagulated blood under the same conditions (FIG. 6). When fresh blood samples in closed heparin vacutainers are kept refrigerated, no significant difference in CoQ10H2:TQ10 ratios was observed between samples stored for 0 h and 24 h (P=0.052). […]
# [6] = cited from earlier work
structure (smiles),measurement,setting,value
"COC1=C(OC)C(=O)C(C/C=C(\C)CC/C=C(\C)CC/C=C(\C)CC/C=C(\C)CC/C=C(\C)CC/C=C(\C)CC/C=C(\C)CC/C=C(\C)CC/C=C(\C)CCC=C(C)C)=C(C)C1=O [CoQ10, ubiquinone-10, reference compound]",solubility in alcohols,[1],highest solubility in 1-propanol
COc1c(O)c(C)c(C/C=C(\C)CC/C=C(\C)CC/C=C(\C)CC/C=C(\C)CC/C=C(\C)CC/C=C(\C)CC/C=C(\C)CC/C=C(\C)CC/C=C(\C)CCC=C(C)C)c(O)c1OC [CoQ10H2],loss of CoQ10H2,"[2]; in 5 hours, 0-4° C.",1%
same,CoQ10H2 oxidized,"[2]; in an hour, room temperature",3.75%
same,rate of CoQ10H2 oxidation,[2]; room temperature,~2 nM/min
same,solubility in alcohols,[1],highest solubility in 1-propanol
same,decrease of CoQ10H2:TQ10 ratio,"[3]; EDTA blood, vacutainers opened, refrigerated, over 7 h, n=30",~30%
same,loss of CoQ10H2,"[3]; EDTA-anticoagulated blood, within 4 hours, 4° C.",approximately 15%
same,loss of CoQ10H2,"[3]; blood in VACUTAINERS at +4° C., 24 hours",< 3%
same,time CoQ10H2 is stable,[3]; blood in closed heparin VACUTAINERS kept refrigerated,at least 24 hours
same,median CoQ10H2:TQ10 ratio,"[3]; closed heparin vacutainers, initial value (0 h), n=8",0.964
same,decrease of CoQ10H2:TQ10 ratio,"[3]; closed heparin vacutainers, refrigerated, after 48 h",~6%
same,decrease of CoQ10H2:TQ10 ratio,"[3]; closed heparin vacutainers, refrigerated, after 72 h",~28%
same,median CoQ10H2:TQ10 ratio,"[3]; closed heparin vacutainers, refrigerated, stored for 24 h, n=8",0.955
same,loss of CoQ10H2,"[3]; heparin-anticoagulated blood, within 4 hours, 4° C.",< 1%
same,variation of CoQ10H2:TQ10 ratio,"[3]; heparinized blood, vacutainers opened, refrigerated, over 7 h",less than 3%
same,median CoQ10H2:TQ10 ratio,"[3]; heparinized blood, vacutainers opened, refrigerated, over 7 h, n=30",0.949
same,mean ratio of CoQ10H2:TQ10,[4]; EDTA-plasma,91.5(±4.4) %
same,mean ratio of CoQ10H2:TQ10,[4]; heparinized plasma,97.0(±1.4) %
same,time CoQ10H2 is stable,[5],at least 6 months
same,stability in ethanol solution,"[6]; extracted from plasma, prepared in ethanol solution (Okamoto et al)",rapidly oxidized
same,percentage of CoQ10H2 with respect to the TQ10,"[6]; plasma, one day, 2° C. and −10° C. (Okamoto et al)",constant
same,rate of spontaneous oxidation to CoQ10,[6]; room temperature,~2 nM per min
